This assay deals with T1, human KV 1.5 (IKur) (Homo sapiens, UniProt P22460).
T1 construct: expressed in transfected cells
T1 sequence (P22460 whole entry): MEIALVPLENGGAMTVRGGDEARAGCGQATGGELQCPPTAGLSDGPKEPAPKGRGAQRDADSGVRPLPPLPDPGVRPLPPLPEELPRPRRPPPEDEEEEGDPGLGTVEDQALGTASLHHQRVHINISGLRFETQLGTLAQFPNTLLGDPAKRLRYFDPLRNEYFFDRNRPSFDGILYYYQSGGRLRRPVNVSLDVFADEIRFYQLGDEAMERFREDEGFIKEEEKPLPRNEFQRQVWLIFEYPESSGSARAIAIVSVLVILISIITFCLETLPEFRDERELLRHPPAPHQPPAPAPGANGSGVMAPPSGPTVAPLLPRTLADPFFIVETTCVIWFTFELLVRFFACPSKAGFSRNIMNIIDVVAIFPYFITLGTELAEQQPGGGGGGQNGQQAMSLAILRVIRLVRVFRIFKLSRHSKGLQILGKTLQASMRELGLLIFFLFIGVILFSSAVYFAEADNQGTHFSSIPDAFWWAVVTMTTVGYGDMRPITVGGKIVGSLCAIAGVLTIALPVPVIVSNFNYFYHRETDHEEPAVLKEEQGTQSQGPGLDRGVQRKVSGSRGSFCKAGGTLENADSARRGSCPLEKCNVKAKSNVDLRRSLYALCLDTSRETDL
Put plainly: Block of IKur current in patch clamped L-929 cells expressing human Kv1.5. Format: cell-based. Particulars: L929, patch clamped mammalian L-929 cells stably expressing human Kv1.5, read-out: Percentage inhibition of Kv1.5 in L-929 cells at 0.3 μM. An excerpt:
Assays to determine the degree of activity of a compound as an IKur inhibitor are well known in the art and are described in references such as J. Gen. Physiol., 101(4):513-543 (April 1993), and Br. J. Pharmacol., 115(2):267-274 (May 1995).
Synders, D. J. et al., “A rapidly activating and slowly inactivating potassium channel cloned from human heart: functional analysis after stable mammalian cell culture expression”, J. Gen. Physiol., 101:513-543 (1993). • 2. Zhou, Z. et al., “Block of HERG potassium channels by the antihistamine astemizole and its metabolites desmethylastemizole and norastemizole”, J. Cardiovasc. Electrophysiol., 10(6):836-843 (1999).
As for `NS(=O)(=O)c1cncc(-c2cc(NCc3ccccc3)c3c(-c4ccccc4)ccn3n2)c1` [Example 1, 5-(4-(Benzylamino)-5-phenylpyrrolo[1,2-b]pyridazin-2-yl)pyridine-3-sulfonamide], the inhibition at 0.3 µM is 99%.

With `CC(=O)NS(=O)(=O)c1cncc(-c2cc(NCc3ccccc3)c3c(-c4ccccc4)ccn3n2)c1` [Example 2, N-((5-(4-(Benzylamino)-5-phenylpyrrolo[1,2-b]pyridazin-2-yl)pyridin-3-yl)sulfonyl)acetamide], the inhibition at 0.3 µM was 37%.

Consider `CC(=O)Nc1cncc(-c2cc(NCc3ccccc3)c3c(-c4ccccc4)ccn3n2)c1` [Example 3, N-(5-(4-(Benzylamino)-5-phenylpyrrolo[1,2-b]pyridazin-2-yl)pyridin-3-yl)acetamide], for which the inhibition at 0.3 µM came to 98%.

As for `CS(=O)(=O)Nc1cncc(-c2cc(NCc3ccccc3)c3c(-c4ccccc4)ccn3n2)c1` [Example 4, N-(5-(4-(Benzylamino)-5-phenylpyrrolo[1,2-b]pyridazin-2-yl)pyridin-3-yl)methanesulfonamide], the inhibition at 0.3 µM was 98%.

Consider `CCOC(=O)c1cncc(-c2cc(NCc3ccccc3)c3c(-c4cncc(C(=O)OCC)c4)ccn3n2)c1` [Example 5, Diethyl 5,5′-(4-(benzylamino)pyrrolo[1,2-b]pyridazine-2,5-diyl)dinicotinate], for which the inhibition at 0.3 µM worked out at 34%.

`NS(=O)(=O)c1cncc(-c2cc(NCc3ccccc3)c3c(-c4cccc(F)c4)ccn3n2)c1` [Example 6, 5-(4-(Benzylamino)-5-(3-fluorophenyl)pyrrolo[1,2-b]pyridazin-2-yl)-pyridine-3-sulfonamide]: the inhibition at 0.3 µM was determined as 95%.

(Values after patent US9458164B2, “Pyrrolopyridazines as potassium ion channel inhibitors” (BRISTOL-MYERS SQUIBB COMPANY, priority 2013, dated 2016).)
